# The SangsterLogP compilation
# Test: method code SF-HPLC, from DOI: 10.1016/0378-5173(94)00315-v
# Conditions: pH 1.0
row,logD,Structure (SMILES)
1,2.82,COc1ccc2cc(CC(=O)O)ccc2c1

# Same assay, conditions: pH 7.4
row,logD,Structure (SMILES)
1,1.41,COc1ccc2cc(CC(=O)OCC(=O)N(CCO)CCO)ccc2c1
2,3.1,CCCNC(=O)COC(=O)Cc1ccc2cc(OC)ccc2c1
3,2.89,COc1ccc2cc(CC(=O)OCC(=O)NC(C)C)ccc2c1
4,3.67,C=CCN(CC=C)C(=O)COC(=O)Cc1ccc2cc(OC)ccc2c1
5,3.6,COc1ccc2cc(CC(=O)OCC(=O)NC(C)(C)C)ccc2c1
6,2.65,CCNC(=O)COC(=O)Cc1ccc2cc(OC)ccc2c1
7,1.88,COc1ccc2cc(CC(=O)OCC(N)=O)ccc2c1
8,2.13,COc1ccc2cc(CC(=O)OCC(=O)N3CCOCC3)ccc2c1
9,1.98,CCN(CCO)C(=O)COC(=O)Cc1ccc2cc(OC)ccc2c1
10,3.99,COc1ccc2cc(CC(=O)OCC(=O)NC3CCCCC3)ccc2c1
11,4.04,CCCN(CCC)C(=O)COC(=O)Cc1ccc2cc(OC)ccc2c1
12,3.57,CCCCNC(=O)COC(=O)Cc1ccc2cc(OC)ccc2c1
13,2.19,CNC(=O)COC(=O)Cc1ccc2cc(OC)ccc2c1
14,1.58,COc1ccc2cc(CC(=O)OCC(=O)N(C)CCO)ccc2c1
15,2.23,COc1ccc2cc(CC(=O)OCC(=O)N(C)C)ccc2c1
16,3.31,CCC(C)NC(=O)COC(=O)Cc1ccc2cc(OC)ccc2c1 (centres undefined)
17,3.05,CCN(CC)C(=O)COC(=O)Cc1ccc2cc(OC)ccc2c1
18,2.71,COc1ccc2cc(CC(=O)OCC(=O)N3CCCC3)ccc2c1
